Results taken from patent US10731159B2, “Cationic lipid” (DAIICHI SANKYO COMPANY, LIMITED, priority 2013, dated 2020).

Assays:
[1] = Rate of encapsulation of polynucleotide/mRNA (Quant-iT RiboGreen, with and without Triton X-100); format: physicochemical
Experimental: The rate of encapsulation of the double-stranded polynucleotide was measured using Quant-iT RiboGreen RNA Assay kit (Invitrogen Corp.) according to the attached document.
Specifically, the double-stranded polynucleotide in the nucleic acid lipid particle dispersion was quantified in the presence and absence of a 0.015% Triton X-100 detergent, and the rate of encapsulation was calculated according to the following expression: {[Amount of the double-stranded polynucleotide in the presence of the detergent]−[Amount of the double-stranded polynucleotide in the absence of the detergent]}/[Amount of the double-stranded polynucleotide in the presence of the detergent]}×100(%) (3) Ratio of Double-Stranded Polynucleotide to Lipid
The rate of encapsulation of the mRNA was measured using Quant-iT RiboGreen RNA Assay kit (Invitrogen Corp.) according to the attached document.
Specifically, the mRNA in the nucleic acid lipid particle dispersion was quantified in the presence and absence of a 0.015% Triton X-100 detergent, and the rate of encapsulation was calculated according to the following expression: {[Amount of the mRNA in the presence of the detergent]−[Amount of the mRNA in the absence of the detergent]}/[Amount of the mRNA in the presence of the detergent]}×100(%) (3) Ratio of mRNA to Lipid

[2] = Average particle size of nucleic acid lipid particle (NICOMP 380ZLS); format: physicochemical
Experimental: The particle size of the liposome was measured using Zeta Potential/Particle Sizer NICOMP™ 380ZLS (Particle Sizing Systems, LLC). In the tables, the average particle size is indicated by a volume-average particle size, and the numeric value following ±represents a deviation.

Factor VII protein = experiment: Test Example 9: Factor VII (FVII) protein measurement in mouse plasma, 0.1 mg/kg i.v.; format: in vivo; conditions: mice, i.v. 0.1 mg/kg; for FVII inhibitory activity (in words): 1 day and 6 days after administration; for Relative amount of FVII, 1 day later: plasma 1 day after administration; for Relative amount of FVII, 1 day later / Relative amount of FVII, 6 days later: PBS = 100%; for Relative amount of FVII, 6 days later: plasma 6 days after administration
Experimental: The Factor VII protein was measured according to a method described in Nature Biotechnology (2010) 28, 172-176. C57BL6/J mice (male, 9 weeks old) were randomly grouped (n=4). The nucleic acid lipid particle dispersion prepared in Example 33 was intravenously injected at a dose of 0.3 mg/kg to the tail of each mouse. One day after the administration, approximately 50 μL of blood was collected from the tail vein, and plasma was obtained. The amount of the Factor VII protein in the obtained plasma was measured using Biophen FVII assay kit (manufactured by Aniara Corp.) according to the attached protocol.
When the amount of FVII of respective plasma samples collected in equal amounts from individuals in a PBS administration group was defined as 100%, the relative ratio (%) of the amount of FVII in a plasma sample of each individual was used as a measurement value (A). An average value (B) was determined from the respective measurement values of the individuals in the PBS administration group. The relative ratio of the measurement value (A) of each individual was determined from the expression: A/B×100(%).
By the same procedures as in Test Example 7, the strength of Factor VII protein expression inhibitory activity was compared among nucleic acid lipid particles each prepared using a novel lipid. The prepared nucleic acid lipid particle dispersion was intravenously injected at a dose of 0.1 mg/kg to the tail of each mouse. One day and 6 days after the administration, approximately 50 μL of blood was collected from the tail vein, and plasma was obtained.

[3] = Ratio of polynucleotide/mRNA to lipid (wt/wt); format: physicochemical
Experimental: The nucleic acid lipid particle dispersion was mixed with acetonitrile and chloroform at a ratio of 1:1:1 and centrifuged at 15,000 rpm for 2 minutes. Then, the aqueous layer obtained as an upper layer was recovered, followed by the extraction of the double-stranded polynucleotide. The amount of the double-stranded polynucleotide in the sample was measured by ion-exchange chromatography (system: Agilent 1100 series, column: TSKgel DEAE-2SW (2.6×150 mm) (Tosoh Corp), buffer A: 20% acetonitrile, buffer B: 20% acetonitrile and 1.6 M ammonium formate, gradient (B %): 30-55% (0-20 min), flow rate: 1 mL/min, temperature: 40° C., detection: 260 nm).
The amount of the phospholipid in the nucleic acid lipid particle dispersion was measured using Phospholipid C-Test Wako (Wako Pure Chemical Industries Ltd.) according to the attached document. Specifically, the phospholipid in the sample was quantified in the presence of a 1% Triton X-100 detergent.
The amounts of cholesterol and LP in the nucleic acid lipid particle dispersion were measured by reverse-phase chromatography (system: Agilent 1100 series, column: Chromolith Performance RP-18 endcapped 100-3 monolithic HPLC-column (Merck), buffer A: 0.01% trifluoroacetic acid, buffer B: 0.01% trifluoroacetic acid and methanol, gradient (B %): 87-92% (0-10 min), flow rate: 2 mL/min, temperature: 50° C., detection: 205 nm).
The total amount of lipids was calculated from the amount of the phospholipid and the compositional ratio of lipid components constituting the liposome, and the ratio of the polynucleotide to the lipid was calculated from the aforementioned amount of the polynucleotide and the total amount of lipids according to the following expression: [Double-stranded polynucleotide concentration]/[Total lipid concentration] (wt/wt)
The total amount of lipids was calculated from the amount of the phospholipid, the amount of cholesterol, and the amount of LP, and the compositional ratio of lipid components constituting the liposome, and the ratio of the polynucleotide to the lipid was calculated from the aforementioned amount of the polynucleotide and the total amount of lipids according to the following expression: [Double-stranded polynucleotide concentration]/[Total lipid concentration] (wt/wt)
The amount of the double-stranded polynucleotide in a sample from the nucleic acid lipid particle dispersion was measured in the presence of a 5% Triton X-100 detergent by ion-exchange chromatography (system: Agilent 1100 series, column: DNAPac PA200 (4×250 mm) (Thermo Fisher Scientific K.K.), buffer A: 10 mM Tris, 25 mM sodium perchlorate, and 20% ethanol, pH 7.0, buffer B: 10 mM Tris, 250 mM sodium perchlorate, and 20% ethanol, pH 7.0, gradient (B %): 20-70% (0-15 min), flow rate: 0.5 mL/min, temperature: 40° C., detection: 260 nm).
The amounts of cholesterol and LP in the nucleic acid lipid particle dispersion were measured by reverse-phase chromatography (system: Agilent 1100 series, column: Chromolith Performance RP-18 endcapped 100-3 monolithic HPLC-column (Merck), buffer A: 0.01% trifluoroacetic acid, buffer B: 0.01% trifluoroacetic acid and methanol, gradient (B %): 82-92% (0-10 min), flow rate: 2 mL/min, temperature: 50° C., detection: 205 nm).
The total amount of lipids was calculated from the amount of the phospholipid, the amount of cholesterol, and the amount of LP, and the compositional ratio of lipid components constituting the liposome, and the ratio of the mRNA to the lipid was calculated from the “amount of the mRNA in the presence of the detergent” of the preceding paragraph (2) according to the following expression: [mRNA concentration in the presence of the detergent]/[Total lipid concentration] (wt/wt)

human β-catenin gene [4] = experiment: Test Example 1: β-catenin gene expression inhibition in SW480 cells, 3 days, real-time PCR; format: cell-based
Experimental: (§1) As described below, the strength of human β-catenin gene expression inhibitory activity was compared among nucleic acid lipid particles each prepared using a novel lipid.
The concentration of a human colorectal cancer SW480 cell line (derived from human colorectal adenocarcinoma) was adjusted to 50,000 cells/mL in an RPMI1640 medium (manufactured by Invitrogen Corp.) containing 10% fetal bovine serum (culture medium). Then, the resulting culture solution was inoculated at 100 μL/well to a 96-well flat-bottomed plate (manufactured by Corning Inc./Falcon) and cultured at 37° C. for 1 day under 5.0% CO2. The nucleic acid lipid particle dispersion prepared in Example 31 was diluted with a culture medium to prepare dilution series having final double-stranded polynucleotide concentrations of 30, 3.0, 0.3, and 0.03 nM in the medium. Then, each dilution was added to the cells after removal of the culture supernatant, and the culture was further continued for 3 days. This operation was performed at N=3 for each concentration.
(§2) A lysate and cDNA for real-time PCR measurement were prepared from the transfected cells using TaqMan® Fast-Cells-to-Ct kit (Life Technologies, Inc./Ambion) according to the instruction manual. In the lysate preparation, Lysis Solution supplemented with DNase I was used. The probes for real-time PCR used were TaqMan® Gene Expression Assays (CTNNB1, FAM probe) (Hs00355045_m1, manufactured by Applied Biosystems, Inc.) for the human β-catenin gene and a human GAPDH gene probe as an internal standard (VIC probe, Hs99999905_m1, manufactured by Applied Biosystems, Inc.). 5 μL of TaqMan® Fast Advanced Master Mix, 2 μL of RNase-Free Water, 0.5 μL of each gene probe, and 2 μL of the prepared cDNA solution were added per well of a 384-well PCR plate (manufactured by Applied Biosystems, Inc.) to bring the total amount to 10 μL, which was then loaded in ViiA™ 7 Real-time PCR system (manufactured by Applied Biosystems, Inc.) and subjected to PCR under conditions given below. The real-time PCR was carried out at N=4 for the cDNA prepared from the lysate.
(§3) PCR initial activation: 95° C. for 20 seconds
(§4) PCR: 95° C. for 1 second • 62° C. for 20 seconds
(§5) This PCR cycle was repetitively performed 40 times.
(§6) The quantitative analysis was conducted by the ΔΔCt method.

human β-catenin gene [5] = experiment: Test Example 2: β-catenin gene expression inhibition in HepG2 cells, 3 days, real-time PCR; format: cell-based
Experimental: as §1
The concentration of a human liver cancer HepG2 cell line (derived from human liver cancer) was adjusted to 50000 cells/mL in a DMEM medium (manufactured by Invitrogen Corp.) containing 10% fetal bovine serum (culture medium). Then, the resulting culture solution was inoculated at 100 μL/well to a 96-well flat-bottomed plate (manufactured by Corning Inc./Falcon) and cultured at 37° C. for 1 day under 5.0% CO2. The nucleic acid lipid particle-containing dispersion prepared in Example 31 was diluted with a culture medium to prepare dilution series having final double-stranded polynucleotide concentrations of 30, 3, 0.3, and 0.03 nM in the medium. Then, each dilution was added to the cells after removal of the culture supernatant, and the culture was further continued for 3 days. This operation was performed at N=3 for each concentration.
as §2, §3, §4, §5, §6

[6] = Example 56: siFVII, DSPC:Chol:LP:PEG-C-DMA=10:48:40:2, N/P 3
[7] = Example 56: siFVII, DSPC:Chol:LP:PEG-C-DMA=10:48:40:2, N/P 3, ± deviation
[8] = compared with particle containing lipid of Reference Example 2

Structure (SMILES): CCCCCCCCCCC(CCCCCCC/C=C\C[C@@H](CCCCCC)OC(C)=O)OC(=O)OCCCN(C)C (stereo partly drawn) [Example 28, (7R,9Z)-18-({[3-(Dimethylamino)propyloxy]carbonyl}oxy)octacos-9-en-7-yl Acetate]
- Rate of polynucleotide encapsulation [1, 6]: 97%
- Average particle size [2, 7]: 177 ± 36 nm
- FVII inhibitory activity (in words) (Factor VII protein): strong FVII inhibitory activity
- Relative amount of FVII, 1 day later (Factor VII protein): 45%
- Relative amount of FVII, 6 days later (Factor VII protein): 57%
- Ratio of polynucleotide to lipid siRNA/lipid [3, 6]: 0.083 wt/wt

Structure (SMILES): CCCCCC[C@H](C/C=C\CCCCCCCC(CCCCCCC/C=C\C[C@@H](CCCCCC)OC(C)=O)OC(=O)OCCCN(C)C)OC(C)=O [Example 23, (7R,9Z,26Z,29R)-18-({[3-(Dimethylamino)propoxy]carbonyl}oxy)pentatriaconta-9,26-diene-7,29-diyl Diacetate]
- Rate of polynucleotide encapsulation [1, 6]: 99%
- Average particle size [2, 7]: 219 ± 49 nm
- FVII inhibitory activity (in words) (Factor VII protein): strong FVII inhibitory activity
- Relative amount of FVII, 1 day later (Factor VII protein): 21%
- Relative amount of FVII, 6 days later (Factor VII protein): 32%
- Ratio of polynucleotide to lipid siRNA/lipid [3, 6]: 0.076 wt/wt

Structure (SMILES): CCCCC/C=C\C/C=C\CCCCCCCC(CCCCCCC/C=C\C/C=C\CCCCC)OC(=O)OCCCCN(C)C [Example 3, 4-(Dimethylamino)butyl(6Z,9Z,26Z,29Z)-pentatriaconta-6,9,26,29-tetraen-18-yl Carbonate]
- Rate of polynucleotide encapsulation ([1]; particles of Example 31: DSPC:Chol:LP:PEG-C-DMA=20:48:30:2, CT-157/CT-169 double-stranded polynucleotide): 98.6%
- inhibitory activity against β-catenin gene expression (in words) (human β-catenin gene [4]; [8]): strong inhibitory activity
- IC50 (human β-catenin gene [4]; nucleic acid lipid particle of Example 31 containing the named lipid, double-stranded polynucleotide concentration, read-out: β-catenin gene expression inhibitory activity IC50): 0.44 nM
- Average particle size ([2]; particles of Example 31, volume-average particle size ± deviation): 187 ± 31 nm
- inhibitory activity against β-catenin gene expression (in words) (human β-catenin gene [5]; [8]): strong inhibitory activity
- IC50 (human β-catenin gene [5]; nucleic acid lipid particle of Example 31 containing the named lipid, read-out: β-catenin gene expression inhibitory activity IC50): 0.35 nM
- Ratio of polynucleotide to lipid siRNA/lipid ([3]; particles of Example 31, total lipids calculated from phospholipid amount and compositional ratio (Table 3)): 0.099 wt/wt
